Drawing on patent US20170121344A1 (Siga Technologies, Inc., priority 2009, published 2017), this text covers EC50 for 35 compounds.

pEC50: −log10 of the molar value. Counter-ions that a name gives are not always drawn.

The test system of the first test is Dengue-2 (Strain New Guinea C). In words: Viral yield assay against Dengue-2 in Vero cells. Format: cell-based, Dengue virus. As to conditions: Dengue virus, Vero, 48 h, read-out: Activity (EC50 class) against Dengue-2 Virus in Vero cells. The essentials: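 Virus yield, titered on Vero cells from cultures harvested at 48 h post infection, gave the EC50. Cultures were infected at MOI 0.1 with dengue-2 and treated with compound or DMSO at 37° C. DENV-1 and DENV-4 were determined similarly.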
Consider `CC1(C)CC(=O)c2cc3c(N)c(C(=O)NCc4ccco4)sc3nc2C1` [Compound 95, 3-Amino-7,7-dimethyl-5-oxo-5,6,7,8-tetrahydro-thieno[2,3-b]quinoline-2-carboxylic acid (furan-2-ylmethyl)-amide], for which the negative-log EC50 (pEC50) was 4.60 to 5.30. Regarding `COCc1cc(C)nc2sc(C(=O)Nc3cccc(C(F)(F)F)c3)c(N)c12` [Compound 98, 3-Amino-4-methoxymethyl-6-methyl-thieno[2,3-b]pyridine-2-carboxylic acid (3-trifluoromethyl-phenyl)-amide], the pEC50 is 4.60 to 5.30.

Turning to `NC(=O)c1sc2nc3c(c(-c4ccco4)c2c1N)CCC3` [Compound 99, 3-Amino-4-furan-2-yl-6,7-dihydro-5H-cyclopenta[b]thieno[3,2-e]pyridine-2-carboxylic acid amide], the pEC50 was 4.60 to 5.30.

`CN1CCc2nc3sc(C(=O)NC4CC4)c(N)c3cc2C1` [Compound 105, 3-Amino-6-methyl-5,6,7,8-tetrahydro-thieno[2,3-b][1,6]naphthyridine-2-carboxylic acid cyclopropylamide]: the pEC50 was 4.60 to 5.30. On to `CN1CCc2nc3sc(C(=O)NCc4ccccc4)c(N)c3cc2C1` [Compound 106, 3-Amino-6-methyl-5,6,7,8-tetrahydro-thieno[2,3-b][1,6]naphthyridine-2-carboxylic acid benzylamide], for which the pEC50 was 4.60 to 5.30. In the case of `CN1CCc2nc3sc(C(=O)NC(C)(C)C)c(N)c3cc2C1` [Compound 107, 3-Amino-6-methyl-5,6,7,8-tetrahydro-thieno[2,3-b][1,6]naphthyridine-2-carboxylic acid tart-butylamide], the pEC50 was 4.60 to 5.30. `Nc1c(C(=O)Nc2ccc(F)cc2)sc2nc3c(cc12)CCCCC3` [Compound 116, 3-Amino-6,7,8,9-tetrahydro-5H-1-thia-10-aza-cyclohepta[f]indene-2-carboxylic acid (4-fluoro-phenyl)-amide]: the pEC50 was less than 4.60.

The same test, now with this note: Dengue virus; Vero cells, MOI 0.1, harvested 48 hours post infection; read-out: Activity (EC50 class) against Dengue-2 Virus in Vero cells.
Consider `Cc1cc(C)c(NC(=O)c2sc3nc4c(cc3c2N)C(=O)CCC4)c(C)c1` [Compound 94, 3-Amino-5-oxo-5,6,7,8-tetrahydro-thieno[2,3-b]quinoline-2-carboxylic acid (2,4,6-trimethyl-phenyl)-amide], for which the pEC50 was 4.60 to 5.30. Consider `C=CCc1c(C)nc2sc(C(=O)Nc3cccc(Cl)c3)c(N)c2c1C` [Compound 96, 5-Allyl-3-amino-4,6-dimethyl-thieno[2,3-b]pyridine-2-carboxylic acid (3-chloro-phenyl)-amide], for which the pEC50 was 4.60 to 5.30.

With `COCc1cc(C)nc2sc(C(=O)Nc3cccc(Cl)c3)c(N)c12` [Compound 97, 3-Amino-4-methoxymethyl-6-methyl-thieno[2,3-b]pyridine-2-carboxylic acid (3-chloro-phenyl)-amide], the pEC50 is 4.60 to 5.30.

Take `Cc1ccccc1-n1cnc2c(sc3nc(N4CCOCC4)c4c(c32)CC(C)(C)OC4)c1=O` [Compound 100, 2,2-Dimethyl-5-morpholin-4-yl-9-o-tolyl-1,4-dihydro-2H,9H-3-oxa-7-thia-6,9,11-triaza-benzo[c]fluoren-8-one]: the pEC50 was 4.60 to 5.30. Still for that read-out and setting: as for `COc1ccc(-c2ccc3c(N)c(C(=O)NC(C)C)sc3n2)cc1` [Compound 101, 3-Amino-6-(4-methoxy-phenyl)-thieno[2,3-b]pyridine-2-carboxylic acid isopropylamide], the figure is 4.60 to 5.30. Regarding `CCN(C(=O)c1sc2nc(C)cc(C)c2c1N)c1ccccc1` [Compound 102, 3-Amino-4,6-dimethyl-thieno[2,3-b]pyridine-2-carboxylic acid ethyl-phenyl-amide], the negative-log EC50 (pEC50) was 4.60 to 5.30. With `Cc1cc(NC(=O)c2sc3nc4c(c(-c5cccs5)c3c2N)CN(C)CC4)no1` [Compound 103, 3-Amino-6-methyl-4-thiophen-2-yl-5,6,7,8-tetrahydro-thieno[2,3-b][1,6]naphthyridine-2-carboxylic acid (5-methyl-isoxazol-3-yl)amide], the pEC50 is 4.60 to 5.30.

As for `Cc1ccc(NC(=O)c2sc3nc4c(cc3c2N)CN(C)CC4)c(F)c1` [Compound 104, 3-Amino-6-methyl-5,6,7,8-tetrahydro-thieno[2,3-b][1,6]naphthyridine-2-carboxylic acid (2-fluoro-4-methyl-phenyl)-amide], the pEC50 was 4.60 to 5.30. As to `CCOc1cccc(NC(=O)c2sc3nc4c(cc3c2N)CN(C)CC4)c1` [Compound 108, 3-Amino-6-methyl-5,6,7,8-tetrahydro-thieno[2,3-b][1,6]naphthyridine-2-carboxylic acid (3-ethoxy-phenyl)-amide], the pEC50 was 4.60 to 5.30. On the same count and under the same terms, the figure for `CN1CCc2nc3sc(C(=O)Nc4c(Cl)cccc4Cl)c(N)c3cc2C1` [Compound 109, 3-Amino-6-methyl-5,6,7,8-tetrahydro-thieno[2,3-b][1,6]naphthyridine-2-carboxylic acid (2,6-dichloro-phenyl)-amide] is 4.60 to 5.30.

`CN1CCc2nc3sc(C(=O)Nc4ccc(F)c(Cl)c4)c(N)c3cc2C1` [Compound 110, 3-Amino-6-methyl-5,6,7,8-tetrahydro-thieno[2,3-b][1,6]naphthyridine-2-carboxylic acid (3-chloro-4-fluoro-phenyl)-amide]: the pEC50 is 4.60 to 5.30. `CN1CCc2nc3sc(C(=O)Nc4ccc(F)cc4F)c(N)c3cc2C1` [Compound 111, 3-Amino-6-methyl-5,6,7,8-tetrahydro-thieno[2,3-b][1,6]naphthyridine-2-carboxylic acid (2,4-difluoro-phenyl)-amide]: the pEC50 was 4.60 to 5.30. Consider `CN1CCc2nc3sc(C(=O)Nc4cccc(C#N)c4)c(N)c3cc2C1` [Compound 112, 3-Amino-6-methyl-5,6,7,8-tetrahydro-thieno[2,3-b][1,6]naphthyridine-2-carboxylic acid (3-cyano-phenyl)-amide], for which the pEC50 is 4.60 to 5.30.

Consider `CN1CCc2nc3sc(C(=O)NCc4ccccc4Cl)c(N)c3cc2C1` [Compound 113, 3-Amino-6-methyl-5,6,7,8-tetrahydro-thieno[2,3-b][1,6]naphthyridine-2-carboxylic acid 2-chloro-benzylamide], for which the pEC50 was 4.60 to 5.30. Consider `Cc1sc(NC(=O)c2sc3nc4c(cc3c2N)CN(C)CC4)c(C#N)c1C` [Compound 114, 3-Amino-6-methyl-5,6,7,8-tetrahydro-thieno[2,3-b][1,6]naphthyridine-2-carboxylic acid (3-cyano-4,5-dimethyl-thiophen-2-yl)-amide], for which the pEC50 is 4.60 to 5.30. Turning to `Nc1c(C(=O)Nc2nnc(-c3ccccc3)s2)sc2nc3c(cc12)CCNCC3` [Compound 115, 3-Amino-6,7,8,9-tetrahydro-5H-1-thia-7,10-diaza-cyclohepta[f]indene-2-carboxylic acid (5-phenyl-[1,3,4]thiadiazol-2-yl)-amide hydrochloride], the pEC50 was 4.60 to 5.30.

Turning to `Cc1cccc(NC(=O)c2sc3nc4c(cc3c2N)CCCCC4)c1` [Compound 117, 3-Amino-6,7,8,9-tetrahydro-5H-1-thia-10-aza-cyclohepta[f]indene-2-carboxylic acid m-tolylamide], the pEC50 is less than 4.60. In the case of `COc1ccc(NC(=O)c2sc3nc4c(cc3c2N)CCCCC4)cc1` [Compound 118, 3-Amino-6,7,8,9-tetrahydro-5H-1-thia-10-aza-cyclohepta[f]indene-2-carboxylic acid (4-methoxy-phenyl)-amide], the pEC50 is less than 4.60. Regarding `COc1ccc(NC(=O)c2sc3nc(-c4ccccc4)cc(C(F)(F)F)c3c2N)cc1` [Compound 119, 3-Amino-6-phenyl-4-trifluoromethyl-thieno[2,3-b]pyridine-2-carboxylic acid (4-methoxy-phenyl)-amide], the pEC50 is less than 4.60.

As for `CC(=O)c1ccc(NC(=O)c2sc3nc(C)cc(C)c3c2N)cc1` [Compound 120, 3-Amino-4,6-dimethyl-thieno[2,3-b]pyridine-2-carboxylic acid (4-acetyl-phenyl)-amide], the pEC50 is less than 4.60.

Consider `Cc1cc(C)c2c(N)c(C(=O)Nc3cccc4cccnc34)sc2n1` [Compound 121, 3-Amino-4,6-dimethyl-thieno[2,3-b]pyridine-2-carboxylic acid quinolin-8-ylamide], for which the pEC50 is less than 4.60. Turning to `Cc1cc(C)c2c(N)c(C(=O)NC34CC5CC(CC(C5)C3)C4)sc2n1` [Compound 122, 3-Amino-4,6-dimethyl-thieno[2,3-b]pyridine-2-carboxylic acid adamantan-1-ylamide], the pEC50 is less than 4.60.

For the compound `Cc1cc(C(F)(F)F)c2c(N)c(C(=O)Nc3ccc(I)cc3C)sc2n1` [Compound 123, 3-Amino-6-methyl-4-trifluoromethyl-thieno[2,3-b]pyridine-2-carboxylic acid (4-iodo-2-methyl-phenyl)-amide], the pEC50 was less than 4.60. Consider `COCc1cc(C)nc2sc(C(=O)Nc3ccccc3)c(N)c12` [Compound 124, 3-Amino-4-methoxymethyl-6-methyl-thieno[2,3-b]pyridine-2-carboxylic acid phenylamide], for which the pEC50 was less than 4.60. `COc1ccc(-c2cc(-c3ccccc3)nc3sc(C(N)=O)c(N)c23)cc1` [Compound 125, 3-Amino-4-(4-methoxy-phenyl)-6-phenyl-thieno[2,3-b]pyridine-2-carboxylic acid amide]: the pEC50 is less than 4.60. With `COc1ccc(-c2cc(-c3ccccc3)nc3sc(C(=O)Nc4ccccc4)c(N)c23)cc1` [Compound 126, 3-Amino-4-(4-methoxy-phenyl)-6-phenyl-thieno[2,3-b]pyridine-2-carboxylic acid phenylamide], the pEC50 was less than 4.60.

With `Cc1cccc(C)c1NC(=O)c1sc2nc(N)c(C#N)cc2c1N` [Compound 127, 3,6-Diamino-5-cyano-thieno[2,3-b]pyridine-2-carboxylic acid (2,6-dimethyl-phenyl)-amide], the pEC50 was less than 4.60.

As to `Cc1cc(C(F)(F)F)c2c(N)c(C(=O)Nc3cccc4ccccc34)sc2n1` [Compound 128, 3-Amino-6-methyl-4-trifluoromethyl-thieno[2,3-b]pyridine-2-carboxylic acid naphthalen-1-ylamide], the pEC50 is less than 4.60.

As usually defined, the pEC50 is −log10 of the EC50, conventionally taken in molar units.
